This is an account of results in PubChem BioAssay (NCI).

Among the test systems are CAKI-1 renal; OVCAR-5 ovarian; COLO 205 colon; NCI/ADR-RES ovarian; NCI-H23 lung; A549 NSCLC; SK-MEL-5 melanoma; CCRF-CEM leukemia; A498 renal; HCT-116 colon.
Common to all, as to assay: NCI tumour cell line growth inhibition, 48 h

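Growth conditions: 96-well plates. Treatment: test compound, 48 hours, 5 concentrations. Analysis: linear interpolation between bracketing concentrations; unreached endpoints set to highest concentration. At the GI50, growth is halved. TGI: concentration producing complete growth inhibition.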 Some results are limits rather than exact numbers.

As to `CCN(CC)CCOc1ccccc1-n1c(C)ccc1-c1ccccc1`, the GI50 with CAKI-1 renal was 13.6 µM; with OVCAR-5 ovarian it was 15.7 µM; in the test on COLO 205 colon, 9.9 µM; in the test on NCI/ADR-RES ovarian, 13.9 µM; with NCI-H23 lung, 14.2 µM; in the test on A549 NSCLC it was 16.3 µM. Also, the GI50 is 12.8 µM with SK-MEL-5 melanoma, 18.7 µM with CCRF-CEM leukemia, 14.5 µM in the test with A498 renal and 12 µM in the test on HCT-116 colon. In addition, the TGI stood at 28 µM in the test with CAKI-1 renal; 30.1 µM in the test on OVCAR-5 ovarian; 22.5 µM in the test with COLO 205 colon; 29.9 µM in the test on NCI/ADR-RES ovarian; 29.9 µM in the test on NCI-H23 lung; 32.1 µM in the test on A549 NSCLC. The TGI in the test on SK-MEL-5 melanoma was 25.9 µM; in the test on CCRF-CEM leukemia it was 48.6 µM; in the test on A498 renal, 32 µM; with HCT-116 colon, 25.8 µM.

With `COc1ccc(-c2cncn2-c2ccc(-c3nc4cc(OC)c(OC)c(OC)c4s3)cc2)cc1N`, the GI50 is 4.82 µM in the test with CAKI-1 renal; > 100 µM in the test with OVCAR-5 ovarian; 2.94 µM in the test with COLO 205 colon; 3.12 µM in the test on NCI/ADR-RES ovarian; 4.76 µM with NCI-H23 lung; 5.77 µM with A549 NSCLC. Besides, the GI50 with SK-MEL-5 melanoma is 1.73 µM; in the test with CCRF-CEM leukemia, 3.41 µM; in the test on A498 renal, 4.83 µM; in the test on HCT-116 colon, 3.78 µM. Further, the TGI in the test on CAKI-1 renal was > 100 µM; in the test on OVCAR-5 ovarian, > 100 µM; in the test with COLO 205 colon, 20.6 µM; in the test on NCI/ADR-RES ovarian, > 100 µM; in the test with NCI-H23 lung, > 100 µM; in the test on A549 NSCLC, > 100 µM. In addition, the TGI in the test with SK-MEL-5 melanoma was 4.4 µM; in the test with CCRF-CEM leukemia, > 100 µM; in the test with A498 renal it was > 100 µM; with HCT-116 colon, > 100 µM.

As for `Cc1cc(O)cc(-c2nn(C)cc2-c2cc(N3CCOCC3)nc(-c3cccnc3)n2)c1`, the GI50 in the test with CAKI-1 renal is 3.32 µM; in the test on OVCAR-5 ovarian it was 12.2 µM; in the test with COLO 205 colon, 2.9 µM; with NCI/ADR-RES ovarian it was 3.43 µM; with NCI-H23 lung, 5.31 µM; with A549 NSCLC, 6.54 µM. Besides, the GI50 is 1.76 µM with SK-MEL-5 melanoma, 2.72 µM in the test with CCRF-CEM leukemia, 1.06 µM with A498 renal and 3.06 µM with HCT-116 colon. In addition, the TGI was > 100 µM with CAKI-1 renal; > 100 µM in the test with OVCAR-5 ovarian; 9.57 µM with COLO 205 colon; 33 µM in the test on NCI/ADR-RES ovarian; 60.3 µM with NCI-H23 lung; > 100 µM in the test with A549 NSCLC. Moreover, the TGI in the test on SK-MEL-5 melanoma is 6.89 µM; with CCRF-CEM leukemia, 33.9 µM; with A498 renal, 3.24 µM; with HCT-116 colon it was > 100 µM.

As to `CN1CCN(c2ccc(NC(=O)c3cncnc3Nc3ccc4c(ccn4Cc4cccc(F)c4)c3)cc2)CC1`, the GI50 with CAKI-1 renal was 3.6 µM; with OVCAR-5 ovarian, 3.42 µM; with COLO 205 colon, 0.905 µM; in the test with NCI/ADR-RES ovarian it was 4.81 µM; in the test with NCI-H23 lung it was 4.35 µM; with A549 NSCLC it was 2.15 µM. The GI50 with SK-MEL-5 melanoma was 1.56 µM; in the test with CCRF-CEM leukemia it was 0.901 µM; in the test on A498 renal, 2.16 µM; in the test on HCT-116 colon it was 1 µM. For the same compound, the TGI in the test with CAKI-1 renal turned out to be 7.75 µM; in the test on OVCAR-5 ovarian it was 7.32 µM; in the test with COLO 205 colon it was 2.64 µM; in the test with NCI/ADR-RES ovarian it was 11 µM; with NCI-H23 lung, 9.14 µM; in the test on A549 NSCLC, 6.59 µM. For the same compound, the TGI was determined as 5.91 µM in the test with SK-MEL-5 melanoma, 2.66 µM in the test with CCRF-CEM leukemia, 6.76 µM in the test on A498 renal and 3.55 µM in the test on HCT-116 colon.

On to `N#Cc1cc2c(=S)[nH]c(=S)[nH]c2nc1SCc1ccccc1`, for which the GI50 with CAKI-1 renal is 10.1 µM; with OVCAR-5 ovarian it was 76.2 µM; in the test on COLO 205 colon it was 46.2 µM; with NCI/ADR-RES ovarian it was 28.1 µM; in the test on NCI-H23 lung, 32 µM; with A549 NSCLC it was 32.3 µM. For the same compound, the GI50 with SK-MEL-5 melanoma was 20.7 µM; in the test with CCRF-CEM leukemia it was 33.1 µM; in the test on A498 renal it was 39.9 µM; with HCT-116 colon, 29.8 µM. The TGI in the test on CAKI-1 renal was 76.8 µM; in the test on OVCAR-5 ovarian it was > 100 µM; with COLO 205 colon it was > 100 µM; in the test on NCI/ADR-RES ovarian it was > 100 µM; in the test with NCI-H23 lung, > 100 µM; in the test on A549 NSCLC, > 100 µM. Also, the TGI with SK-MEL-5 melanoma is 52.3 µM; in the test with CCRF-CEM leukemia it was > 100 µM; in the test on A498 renal it was > 100 µM; in the test on HCT-116 colon it was > 100 µM.

Consider `CCN(CC)CCC(CNc1c(C)cnc2cc(Cl)ccc12)c1ccc(Cl)c(Cl)c1` (stereo not given), for which the GI50 is 2.59 µM in the test on CAKI-1 renal; 4.62 µM with OVCAR-5 ovarian; 1.55 µM in the test on COLO 205 colon; 6.33 µM with NCI/ADR-RES ovarian; 5.62 µM with NCI-H23 lung; 8.21 µM with A549 NSCLC. In addition, the GI50 was 1.82 µM in the test with SK-MEL-5 melanoma, 2.81 µM in the test with CCRF-CEM leukemia, 9.4 µM with A498 renal and 1.36 µM in the test with HCT-116 colon. In addition, the TGI in the test on CAKI-1 renal was determined as 11.5 µM; in the test on OVCAR-5 ovarian it was 18.9 µM; in the test with COLO 205 colon, 3.24 µM; in the test on NCI/ADR-RES ovarian, 21.3 µM; in the test on NCI-H23 lung it was 20.6 µM; in the test on A549 NSCLC, 22 µM. Also, the TGI was found to be 3.26 µM in the test with SK-MEL-5 melanoma, 9.31 µM in the test on CCRF-CEM leukemia, 24.8 µM in the test with A498 renal and 8.86 µM in the test with HCT-116 colon.

As to `COc1ccccc1N1CCN(CC(O)Cn2c(=O)c3c(OC)nc(C)cc3c(=O)n2-c2ccccc2)CC1` (stereo not given), the GI50 in the test with CAKI-1 renal was 32.7 µM; in the test on OVCAR-5 ovarian it was > 100 µM; with COLO 205 colon, > 100 µM; with NCI/ADR-RES ovarian it was 87.9 µM; in the test on NCI-H23 lung, 59.1 µM; in the test on A549 NSCLC, > 100 µM. Also, the GI50 in the test with SK-MEL-5 melanoma is 46.2 µM; in the test on CCRF-CEM leukemia it was > 100 µM; with A498 renal it was 23.8 µM; with HCT-116 colon, 67.3 µM. Moreover, the TGI in the test on CAKI-1 renal, with OVCAR-5 ovarian, in the test on COLO 205 colon, with NCI/ADR-RES ovarian, in the test with NCI-H23 lung and with A549 NSCLC was > 100 µM each time. Further, the TGI in the test on SK-MEL-5 melanoma is > 100 µM; in the test on CCRF-CEM leukemia, > 100 µM; in the test with A498 renal it was 98.2 µM; in the test with HCT-116 colon, > 100 µM.
